Experimental data from PubChem BioAssay (NCI).
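All cell lines were grown in 96-well plates and treated with compound for 48 hours. TGI: concentration producing complete growth inhibition.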

Assays:
Assay in all cases: NCI anticancer screen, dose series, 48 h
786-0 renal = system: 786-0 renal
A498 renal = system: A498 renal
A549 NSCLC = system: A549 NSCLC
ACHN renal = system: ACHN renal
BT-549 breast = system: BT-549 breast
CAKI-1 renal = system: CAKI-1 renal
CCRF-CEM leukemia = system: CCRF-CEM leukemia
COLO 205 colon = system: COLO 205 colon
DU-145 prostate = system: DU-145 prostate
EKVX NSCLC = system: EKVX NSCLC
HCC-2998 colon = system: HCC-2998 colon
HCT-116 colon = system: HCT-116 colon
HCT-15 colon = system: HCT-15 colon
HL-60(TB) leukemia = system: HL-60(TB) leukemia
HOP-62 NSCLC = system: HOP-62 NSCLC
HOP-92 NSCLC = system: HOP-92 NSCLC
HS 578T breast = system: HS 578T breast
HT29 colon = system: HT29 colon
IGROV1 ovarian = system: IGROV1 ovarian
K-562 leukemia = system: K-562 leukemia
KM12 colon = system: KM12 colon
LOX IMVI melanoma = system: LOX IMVI melanoma
M14 melanoma = system: M14 melanoma
MALME-3M melanoma = system: MALME-3M melanoma
MCF7 breast = system: MCF7 breast
MDA-MB-231 breast = system: MDA-MB-231 breast
MDA-MB-435 = system: MDA-MB-435
MDA-N = system: MDA-N
MOLT-4 leukemia = system: MOLT-4 leukemia
NCI-H226 lung = system: NCI-H226 lung
NCI-H23 lung = system: NCI-H23 lung
NCI-H460 lung = system: NCI-H460 lung
NCI-H522 lung = system: NCI-H522 lung
NCI/ADR-RES ovarian = system: NCI/ADR-RES ovarian
OVCAR-3 ovarian = system: OVCAR-3 ovarian
OVCAR-4 ovarian = system: OVCAR-4 ovarian
OVCAR-5 ovarian = system: OVCAR-5 ovarian
OVCAR-8 ovarian = system: OVCAR-8 ovarian
PC-3 prostate = system: PC-3 prostate
RPMI-8226 leukemia = system: RPMI-8226 leukemia
RXF 393 renal = system: RXF 393 renal
SF-268 CNS = system: SF-268 CNS
SF-295 CNS = system: SF-295 CNS
SF-539 CNS = system: SF-539 CNS
SK-MEL-2 melanoma = system: SK-MEL-2 melanoma
SK-MEL-28 melanoma = system: SK-MEL-28 melanoma
SK-MEL-5 melanoma = system: SK-MEL-5 melanoma
SK-OV-3 ovarian = system: SK-OV-3 ovarian
SN12C renal = system: SN12C renal
SNB-19 CNS = system: SNB-19 CNS
SNB-75 CNS = system: SNB-75 CNS
SR leukemia = system: SR leukemia
SW-620 colon = system: SW-620 colon
T-47D breast = system: T-47D breast
TK-10 renal = system: TK-10 renal
U251 CNS = system: U251 CNS
UACC-257 melanoma = system: UACC-257 melanoma
UACC-62 melanoma = system: UACC-62 melanoma
UO-31 renal = system: UO-31 renal

For `CCN(CC)CCn1ncc2c3c(=O)c4cccnc4n(CCN(CC)CC)c3ccc21`, the TGI (786-0 renal) was greater than 10 µM, the TGI (A498 renal) was greater than 10 µM and the TGI (A549 NSCLC) was greater than 10 µM. It also gave a TGI (ACHN renal) greater than 10 µM, a TGI (BT-549 breast) greater than 10 µM and a TGI (CAKI-1 renal) greater than 10 µM. It also gave a TGI (CCRF-CEM leukemia) greater than 10 µM, a TGI (COLO 205 colon) of 6.67 µM and a TGI (DU-145 prostate) greater than 10 µM. For the same compound, the TGI (EKVX NSCLC) was greater than 10 µM, the TGI (HCC-2998 colon) was greater than 10 µM and the TGI (HCT-116 colon) was greater than 10 µM. It also gave a TGI (HCT-15 colon) greater than 10 µM, a TGI (HL-60(TB) leukemia) greater than 10 µM and a TGI (HOP-62 NSCLC) greater than 10 µM. For the same compound, the TGI (HOP-92 NSCLC) was greater than 10 µM, the TGI (HS 578T breast) was greater than 10 µM and the TGI (HT29 colon) was greater than 10 µM. For the same compound, the TGI (IGROV1 ovarian) was greater than 10 µM, the TGI (K-562 leukemia) was greater than 10 µM and the TGI (KM12 colon) was greater than 10 µM. The TGI (LOX IMVI melanoma) was greater than 10 µM, the TGI (M14 melanoma) was greater than 10 µM and the TGI (MALME-3M melanoma) was greater than 10 µM. It also gave a TGI (MCF7 breast) greater than 10 µM, a TGI (MDA-MB-231 breast) greater than 10 µM and a TGI (MDA-MB-435) greater than 10 µM. For the same compound, the TGI (MDA-N) was greater than 10 µM, the TGI (MOLT-4 leukemia) was greater than 10 µM and the TGI (NCI-H226 lung) was greater than 10 µM. It also gave a TGI (NCI-H23 lung) greater than 10 µM, a TGI (NCI-H460 lung) greater than 10 µM and a TGI (NCI-H522 lung) greater than 10 µM. The TGI (NCI/ADR-RES ovarian) was greater than 10 µM, the TGI (OVCAR-3 ovarian) was greater than 10 µM and the TGI (OVCAR-4 ovarian) was greater than 10 µM. It also gave a TGI (OVCAR-5 ovarian) greater than 10 µM, a TGI (OVCAR-8 ovarian) greater than 10 µM and a TGI (PC-3 prostate) greater than 10 µM. For the same compound, the TGI (RPMI-8226 leukemia) was greater than 10 µM, the TGI (RXF 393 renal) was greater than 10 µM and the TGI (SF-268 CNS) was greater than 10 µM. It also gave a TGI (SF-295 CNS) greater than 10 µM, a TGI (SF-539 CNS) greater than 10 µM and a TGI (SK-MEL-2 melanoma) greater than 10 µM. It also gave a TGI (SK-MEL-28 melanoma) greater than 10 µM, a TGI (SK-MEL-5 melanoma) greater than 10 µM and a TGI (SK-OV-3 ovarian) greater than 10 µM. For the same compound, the TGI (SN12C renal) was greater than 10 µM, the TGI (SNB-19 CNS) was greater than 10 µM and the TGI (SNB-75 CNS) was greater than 10 µM. For the same compound, the TGI (SR leukemia) was greater than 10 µM, the TGI (SW-620 colon) was greater than 10 µM and the TGI (T-47D breast) was greater than 10 µM. It also gave a TGI (TK-10 renal) greater than 10 µM, a TGI (U251 CNS) greater than 10 µM and a TGI (UACC-257 melanoma) greater than 10 µM. The TGI (UACC-62 melanoma) was greater than 10 µM.

`COC(=O)[C@@H]1C[C@@]23CCCN4CC[C@@]5(c6cccc(OC)c6N(C=O)[C@]15CC2)[C@@H]43` gave a TGI (786-0 renal) greater than 100 µM, a TGI (A498 renal) greater than 100 µM and a TGI (A549 NSCLC) greater than 100 µM. For the same compound, the TGI (ACHN renal) was greater than 100 µM, the TGI (BT-549 breast) was greater than 100 µM and the TGI (CAKI-1 renal) was greater than 100 µM. For the same compound, the TGI (CCRF-CEM leukemia) was greater than 100 µM, the TGI (COLO 205 colon) was greater than 100 µM and the TGI (DU-145 prostate) was greater than 100 µM. The TGI (EKVX NSCLC) was greater than 100 µM, the TGI (HCC-2998 colon) was greater than 100 µM and the TGI (HCT-116 colon) was greater than 100 µM. It also gave a TGI (HCT-15 colon) greater than 100 µM, a TGI (HL-60(TB) leukemia) greater than 100 µM and a TGI (HOP-62 NSCLC) greater than 100 µM. It also gave a TGI (HOP-92 NSCLC) greater than 100 µM, a TGI (HS 578T breast) greater than 100 µM and a TGI (HT29 colon) greater than 100 µM. The TGI (IGROV1 ovarian) was greater than 100 µM, the TGI (KM12 colon) was greater than 100 µM and the TGI (LOX IMVI melanoma) was greater than 100 µM. For the same compound, the TGI (M14 melanoma) was greater than 100 µM, the TGI (MALME-3M melanoma) was greater than 100 µM and the TGI (MCF7 breast) was greater than 100 µM. For the same compound, the TGI (MDA-MB-231 breast) was greater than 100 µM, the TGI (MDA-MB-435) was greater than 100 µM and the TGI (MDA-N) was greater than 100 µM. For the same compound, the TGI (MOLT-4 leukemia) was greater than 100 µM, the TGI (NCI-H226 lung) was greater than 100 µM and the TGI (NCI-H23 lung) was greater than 100 µM. The TGI (NCI-H460 lung) was greater than 100 µM, the TGI (NCI-H522 lung) was greater than 100 µM and the TGI (NCI/ADR-RES ovarian) was greater than 100 µM. It also gave a TGI (OVCAR-3 ovarian) greater than 100 µM, a TGI (OVCAR-4 ovarian) greater than 100 µM and a TGI (OVCAR-5 ovarian) greater than 100 µM. The TGI (OVCAR-8 ovarian) was greater than 100 µM, the TGI (PC-3 prostate) was greater than 100 µM and the TGI (RPMI-8226 leukemia) was greater than 100 µM. It also gave a TGI (RXF 393 renal) greater than 100 µM, a TGI (SF-268 CNS) greater than 100 µM and a TGI (SF-295 CNS) greater than 100 µM. For the same compound, the TGI (SF-539 CNS) was greater than 100 µM, the TGI (SK-MEL-2 melanoma) was greater than 100 µM and the TGI (SK-MEL-28 melanoma) was greater than 100 µM. The TGI (SK-MEL-5 melanoma) was greater than 100 µM, the TGI (SK-OV-3 ovarian) was greater than 100 µM and the TGI (SN12C renal) was greater than 100 µM. It also gave a TGI (SNB-19 CNS) greater than 100 µM, a TGI (SNB-75 CNS) greater than 100 µM and a TGI (SR leukemia) greater than 100 µM. The TGI (SW-620 colon) was greater than 100 µM, the TGI (T-47D breast) was greater than 100 µM and the TGI (TK-10 renal) was greater than 100 µM. The TGI (U251 CNS) was greater than 100 µM, the TGI (UACC-257 melanoma) was greater than 100 µM and the TGI (UACC-62 melanoma) was greater than 100 µM. For the same compound, the TGI (UO-31 renal) was greater than 100 µM.
